Structures can show the parent of a compound that is named as a salt.

This experiment has as its target T1, human MC4 receptor (Homo sapiens, UniProt P32245).
T1 construct: purchased Biolinks K.K; host or cells: HEK-293
In words: MC4 receptor binding experiment ([125I]Nle4-D-Phe7-α-MSH displacement). The settings on record: human MC4 receptor expressing HEK-293 cell membrane; [125I]Nle4-D-Phe7-α-MSH 0.2 nM, 25° C. Here is the method:
The MC4 receptor binding experiment was performed according to the method described in Pharmacology & Toxicology, 79, 161-165, 1996. The human MC4 receptor expressing-cell membrane obtained by expressing the human MC4 receptor in a HEK-293 cell was purchased from Biolinks K.K. The cell membrane was homogenized with 50 mM tris hydrochloride buffer (pH 7.4) containing 2 mM ethylenediaminetetraacetic acid, 10 mM calcium chloride, and 100 μM phenylmethylsulfonyl fluoride. The homogenate was centrifuged at 48,000×g at 4° C. for 20 min. The sediment obtained by centrifugation was rehomogenized with the same buffer, and the homogenate was centrifuged at 48,000×g at 4° C. for 20 min. This procedure was repeated twice. The sediment was suspended in 50 mM tris hydrochloride buffer (pH 7.4) containing 2 mM ethylenediaminetetraacetic acid, 10 mM calcium chloride, 100 μM phenylmethylsulfonyl fluoride, and 0.1% bovine serum albumin at a protein concentration of 100 μg/ml, and the suspension was used as a crude membrane preparation for the binding experiment. The crude membrane preparation (0.25 ml, 25 μg protein) was reacted with [^125I]Nle^4-D-Phe^7-α-MSH (final concentration, 0.2 nM) at 25° C. for 120 min. After completion of the reaction, the reaction solution was filtered by suction, using a cell harvester for the receptor binding experiment, onto a GF/C glass fiber filter paper immersed in 50 mM tris hydrochloride buffer (pH 7.4) containing 0.5% bovine serum for 2 h. Radioactivity on the filter paper was measured using a γ counter. The quantity of binding in the presence of 1 μM Nle^4-D-Phe^7-α-MSH was obtained as nonspecific binding, and specific binding was obtained by deducting the nonspecific binding from the total quantity, binding in the absence of 1 μM Nle^4-D-Phe^7-α-MSH. The test drug was dissolved in 100% DMSO solution and added to the membrane preparation at the same time as [^125I]Nle^4-D-Phe^7-α-MSH. The IC50 value was obtained from the inhibition curve in the range of 10^−10 to 10^−5 M. The binding test results of representative compounds are shown in Table 21 as examples.

T1 sequence (P32245 whole entry): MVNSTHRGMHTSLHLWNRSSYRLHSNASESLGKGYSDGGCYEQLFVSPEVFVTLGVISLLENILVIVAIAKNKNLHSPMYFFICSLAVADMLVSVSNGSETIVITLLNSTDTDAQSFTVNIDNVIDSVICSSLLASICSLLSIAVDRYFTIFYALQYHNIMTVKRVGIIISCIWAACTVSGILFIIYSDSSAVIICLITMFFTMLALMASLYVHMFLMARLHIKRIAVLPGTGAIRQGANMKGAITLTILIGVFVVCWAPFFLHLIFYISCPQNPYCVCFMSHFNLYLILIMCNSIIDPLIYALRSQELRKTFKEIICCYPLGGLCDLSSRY

In general, IC50 refers to the midpoint of a concentration-inhibition curve. Regarding `Cc1ccc2nc(N[C@H]3CCN(C(=O)Cc4ccc(OC(F)(F)F)cc4)C3)nc(N(C)C)c2c1` [Compound 1-003], the IC50 came to 18 nM.
Under `COc1ccc2nc(N[C@H]3CCN(C(=O)Cc4ccc(OC(F)(F)F)cc4)C3)nc(N(C)C)c2c1` [Compound 1-005] stands 2.8 nM.
Regarding `Cc1ccc2nc(N[C@H]3CCN(C(=O)Cc4ccc(OC(F)(F)F)cc4)C3)nc(NCCc3ccccn3)c2c1` [Compound 1-019], the half-inhibitory concentration (IC50) is 10 nM.
The figure for `COc1ccc2nc(N[C@H]3CCN(C(=O)Cc4ccc(OC(F)(F)F)cc4)C3)nc(N[C@@H]3CCN(C(C)=O)C3)c2c1` [Compound 1-032] is 0.4 nM; for `COc1ccc2nc(N[C@H]3CCN(C(=O)Cc4ccc(OC(F)(F)F)cc4)C3)nc(N[C@@H]3CCN(S(C)(=O)=O)C3)c2c1` [Compound 1-040] it is 0.4 nM.
The figure for `O=C(c1ccc(F)cc1)C1CCN(c2nc(N[C@H]3CCN(C(=O)Cc4ccccc4-c4ccccc4)C3)nc3ccccc23)CC1` [Compound 1-073] is 39 nM; for `COc1ccc2nc(N[C@H]3CCN(C(=O)Cc4ccc(OC(F)(F)F)cc4)C3)nc(N3CCC(S(C)(=O)=O)CC3)c2c1` [Compound 1-078] it is 1.5 nM; for `O=C(Cc1ccc(OC(F)(F)F)cc1)N1CC[C@H](Nc2nc(N3CCC(N4CCOCC4)CC3)c3ccc(F)cc3n2)C1` [Compound 1-092] it is 37 nM.
Under `O=C(Cc1ccccc1-c1ccccc1)N1CC[C@H](Nc2nc(N3CCC(n4ccnc4)CC3)c3ccccc3n2)C1` [Compound 1-095] stands 22 nM; under `O=C(Cc1ccccc1-c1ccccc1)N1CC[C@H](Nc2nc(N3CCc4ccccc4C3)c3ccc(F)cc3n2)C1` [Compound 1-101], 68 nM.
For `O=C1CN(c2nc(N[C@H]3CCN(C(=O)Cc4ccccc4-c4ccccc4)C3)nc3ccccc23)CCN1` [Compound 1-128], the IC50 was found to be 7.3 nM.
Under `O=C1CN(c2nc(N[C@H]3CCN(C(=O)Cc4cc(F)ccc4-c4ccc(OC(F)(F)F)cc4)C3)nc3cc(F)ccc23)CCN1` [Compound 1-133] stands 4.4 nM.
The figure for `CN(C)C(=O)N1CCN(c2nc(N[C@H]3CCN(C(=O)Cc4ccc(OC(F)(F)F)cc4)C3)nc3ccccc23)CC1` [Compound 1-174] is 21 nM; for `COc1ccc2nc(N[C@H]3CCN(C(=O)Cc4ccc(OC(F)(F)F)cc4)C3)nc(N3CCN(C(=O)c4cccnc4)CC3)c2c1` [Compound 1-176] it is 1 nM.
Turning to `CO[C@H]1CN(c2nc(N[C@H]3CCN(C(=O)Cc4ccc(OC(F)(F)F)cc4)C3)nc3ccccc23)C[C@H]1OC` [Compound 1-206], the IC50 worked out at 2.3 nM.
The figure for `COc1ccc2nc(N[C@H]3CCN(C(=O)Cc4ccc(OC(F)(F)F)cc4)C3)cc(N3CCOCC3)c2c1` [Compound 3-011, (S)-1-(3-(6-methoxy-4-morpholinoquinolin-2-ylamino)pyrrolidin-1-yl)-2-(4-trifluoromethoxyphenyl)ethanone] is 6.8 nM.
The figure for `Cc1cc(N[C@H]2CCN(C(=O)Cc3ccc(OC(F)(F)F)cc3)C2)nc2ccc(F)cc12` [Compound 3-019] is 78 nM.
Under `Cc1cc(N[C@H]2CCN(C(=O)Cc3ccc(OC(F)(F)F)cc3)C2)nc2ccc(O)cc12` [Compound 3-022] stands 9.5 nM; under `COc1ccc2nc(N[C@H]3CCN(C(=O)Cc4ccc(OC(F)(F)F)cc4)C3)cc(C)c2c1` [Compound 3-023], 2.4 nM.
Take `COc1cc(N[C@H]2CCN(C(=O)Cc3ccc(OC(F)(F)F)cc3)C2)nc2ccc(C)cc12` [Compound 3-034]: the IC50 was determined as 16 nM.
Under `Cc1cc(N[C@H]2CCN(C(=O)C3(c4ccc(Cl)cc4)CC3)C2)nc2ccc(O)cc12` [Compound 3-038] stands 20 nM.
The figure for `COc1ccc2nc(N[C@H]3CCN(C(=O)C(C)(C)c4ccc(Cl)cc4)C3)cc(C)c2c1` [Compound 3-041] is 46 nM; for `Cc1cc(N[C@H]2CCN(S(C)(=O)=O)C2)nc(N[C@H]2CCN(C(=O)Cc3ccc(OC(F)(F)F)cc3)C2)n1` [Compound 4-022] it is 30 nM.
Under `CCCN(CC1CC1)c1cc(C)nc(N[C@H]2CCN(C(=O)Cc3ccc(OC(F)(F)F)cc3)C2)n1` [Compound 4-035] stands 52 nM.
In turn, `Cc1cc(N2CCOCC2)nc(N[C@H]2CCN(C(=O)Cc3ccc(OC(F)(F)F)cc3)C2)n1` [Compound 4-044] registered an IC50 of 56 nM.
Under `Cc1cc(N2CCS(=O)(=O)CC2)nc(N[C@H]2CCN(C(=O)Cc3ccc(OC(F)(F)F)cc3)C2)n1` [Compound 4-054] stands 39 nM; under `Cc1cc(N2CCCOCC2)nc(N[C@H]2CCN(C(=O)Cc3ccc(OC(F)(F)F)cc3)C2)n1` [Compound 4-058], 28 nM; under `Cc1cc(N2CCS(=O)(=O)CC2)cc(N[C@H]2CCN(C(=O)Cc3ccc(OC(F)(F)F)cc3)C2)n1` [Compound 5-006, 1-((S)-3-(4-(1,1-dioxo-1λ^6-thiomorpholin-4-yl)-6-methylpyridin-2-ylamino)pyrrolidin-1-yl)-2-(4-trifluoromethoxyphenyl)ethanone], 9.3 nM.
The figure for `CN(C)c1nc(N[C@H]2CCN(C(=O)Cc3ccc(OC(F)(F)F)cc3)C2)nc2ccsc12` [Compound 6-001, (S)-1-(3-(4-dimethylaminothieno[3,2-d]pyrimidin-2-ylamino)pyrrolidin-1-yl)-2-(4-trifluoromethoxyphenyl)ethanone 1 maleate] is 71 nM; for `CS(=O)(=O)C1CCN(c2cc(N[C@H]3CCN(C(=O)Cc4ccc(OC(F)(F)F)cc4)C3)nc3ccsc23)CC1` [Compound 7-002, (S)-1-(3-(7-(4-methylsulfonylpiperidin-1-yl)thieno[3,2-b]pyridin-5-ylamino)pyrrolidin-1-yl)-2-(4-trifluoromethoxyphenyl)ethanone] it is 94 nM; for `CC(=O)N1CCN(c2nc(N[C@H]3CCN(C(=O)Cc4ccc(OC(F)(F)F)cc4)C3)nc3cscc23)CC1` [Compound 8-004] it is 11 nM.
Under `CS(=O)(=O)C1CCN(c2nc(N[C@H]3CCN(C(=O)Cc4ccc(OC(F)(F)F)cc4)C3)nc3cscc23)CC1` [Compound 8-005] stands 12 nM.
In turn, `O=C(Cc1ccc(OC(F)(F)F)cc1)N1C[C@@H](O)[C@H](Nc2nc(N3CCOCC3)c3cscc3n2)C1` [Compound 8-006] gave an IC50 of 10 nM.
The figure for `CC(=O)N1CCN(c2nc(N[C@@H]3CN(C(=O)Cc4ccc(OC(F)(F)F)cc4)C[C@H]3O)nc3cscc23)CC1` [Compound 8-007] is 10 nM; for `CS(=O)(=O)N1CC[C@@H](Nc2nc(N[C@@H]3CN(C(=O)Cc4ccc(OC(F)(F)F)cc4)C[C@H]3O)nc3ccc(Cl)cc23)C1` [Compound 11-008] it is 1.3 nM.
The compound `O=C(Cc1ccc(OC(F)(F)F)cc1)N1C[C@@H](O)[C@H](Nc2nc(N3CCOCC3)c3cc(Cl)ccc3n2)C1` [Compound 11-009] yielded an IC50 of 6.1 nM.
Under `COc1ccc2nc(N[C@@H]3CN(C(=O)Cc4ccc(OC(F)(F)F)cc4)C[C@H]3O)nc(N[C@@H]3CCN(S(C)(=O)=O)C3)c2c1` [Compound 11-012] stands 0.3 nM; under `COc1ccc2nc(N[C@@H]3CN(C(=O)Cc4ccc(OC(F)(F)F)cc4)C[C@H]3O)nc(N3CCC(S(C)(=O)=O)CC3)c2c1` [Compound 11-014], 1.4 nM.
The figure for `COc1ccc2nc(N[C@@H]3CN(C(=O)Cc4ccc(OC(F)(F)F)cc4)C[C@H]3O)nc(N3CCN(C(C)=O)CC3)c2c1` [Compound 11-015] is 1 nM; for `COc1ccc2nc(N[C@@H]3CN(C(=O)Cc4ccc(OC(F)(F)F)cc4)C[C@H]3O)cc(N3CCOCC3)c2c1` [Compound 12-001] it is 2.9 nM; for `Cc1ccc2nc(N[C@@H]3CN(C(=O)Cc4ccc(OC(F)(F)F)cc4)C[C@H]3O)cc(C)c2c1` [Compound 12-004] it is 13 nM.
Under `Cc1cc(N[C@@H]2CN(C(=O)Cc3ccc(OC(F)(F)F)cc3)C[C@H]2O)nc2ccc(O)cc12` [Compound 12-007] stands 14 nM.
Regarding `CO[C@@H]1CN(C(=O)Cc2ccc(OC(F)(F)F)cc2)C[C@H]1Nc1cc(C)c2cc(O)ccc2n1` [Compound 12-008, 1-((3R,4R)-3-(6-hydroxy-4-methylquinolin-2-ylamino)-4-methoxypyrrolidin-1-yl)-2-(4-trifluoromethoxyphenyl)ethanone], the IC50 worked out at 12 nM.
Under `COc1ccc2nc(N[C@@H]3CN(C(=O)Cc4ccc(OC(F)(F)F)cc4)C[C@H]3OC)cc(C)c2c1` [Compound 12-010] stands 3 nM; under `COc1ccc2nc(N[C@@H]3CN(C(=O)Cc4ccc(OC(F)(F)F)cc4)C[C@H]3O)cc(OC)c2c1` [Compound 12-017], 3.3 nM.
As for `COc1ccc2nc(N[C@@H]3CN(C(=O)Cc4ccc(OC(F)(F)F)cc4)C[C@H]3OC)cc(OC)c2c1` [Compound 12-018], the concentration for half-maximal inhibition (IC50) worked out at 3.4 nM.

Values taken from US8044068B2, “Aminopyrrolidine compound” (Taisho Pharmaceutical Co., Ltd, priority 2006, dated 2011).
